According to ChEMBL document CHEMBL3525917, “Species difference in the mechanism of nonlinear pharmacokinetics of E2074, a novel sodium channel inhibitor, in rats, dogs, and monkeys” (Drug Metab Dispos, 2013):

Target: MDR1A (P-glycoprotein, ABCB1) (Mus musculus, UniProt P21447)
Assay: Activity of mouse MDR1A expressed in pig LLC-PK1 cells assessed as efflux ratio of permeability from basolateral to apical side to apical to basolateral side at 1 uM after 2 hrs
Type: ADME, cell-based

MDR1A (P-glycoprotein, ABCB1), sequence (P21447 whole entry): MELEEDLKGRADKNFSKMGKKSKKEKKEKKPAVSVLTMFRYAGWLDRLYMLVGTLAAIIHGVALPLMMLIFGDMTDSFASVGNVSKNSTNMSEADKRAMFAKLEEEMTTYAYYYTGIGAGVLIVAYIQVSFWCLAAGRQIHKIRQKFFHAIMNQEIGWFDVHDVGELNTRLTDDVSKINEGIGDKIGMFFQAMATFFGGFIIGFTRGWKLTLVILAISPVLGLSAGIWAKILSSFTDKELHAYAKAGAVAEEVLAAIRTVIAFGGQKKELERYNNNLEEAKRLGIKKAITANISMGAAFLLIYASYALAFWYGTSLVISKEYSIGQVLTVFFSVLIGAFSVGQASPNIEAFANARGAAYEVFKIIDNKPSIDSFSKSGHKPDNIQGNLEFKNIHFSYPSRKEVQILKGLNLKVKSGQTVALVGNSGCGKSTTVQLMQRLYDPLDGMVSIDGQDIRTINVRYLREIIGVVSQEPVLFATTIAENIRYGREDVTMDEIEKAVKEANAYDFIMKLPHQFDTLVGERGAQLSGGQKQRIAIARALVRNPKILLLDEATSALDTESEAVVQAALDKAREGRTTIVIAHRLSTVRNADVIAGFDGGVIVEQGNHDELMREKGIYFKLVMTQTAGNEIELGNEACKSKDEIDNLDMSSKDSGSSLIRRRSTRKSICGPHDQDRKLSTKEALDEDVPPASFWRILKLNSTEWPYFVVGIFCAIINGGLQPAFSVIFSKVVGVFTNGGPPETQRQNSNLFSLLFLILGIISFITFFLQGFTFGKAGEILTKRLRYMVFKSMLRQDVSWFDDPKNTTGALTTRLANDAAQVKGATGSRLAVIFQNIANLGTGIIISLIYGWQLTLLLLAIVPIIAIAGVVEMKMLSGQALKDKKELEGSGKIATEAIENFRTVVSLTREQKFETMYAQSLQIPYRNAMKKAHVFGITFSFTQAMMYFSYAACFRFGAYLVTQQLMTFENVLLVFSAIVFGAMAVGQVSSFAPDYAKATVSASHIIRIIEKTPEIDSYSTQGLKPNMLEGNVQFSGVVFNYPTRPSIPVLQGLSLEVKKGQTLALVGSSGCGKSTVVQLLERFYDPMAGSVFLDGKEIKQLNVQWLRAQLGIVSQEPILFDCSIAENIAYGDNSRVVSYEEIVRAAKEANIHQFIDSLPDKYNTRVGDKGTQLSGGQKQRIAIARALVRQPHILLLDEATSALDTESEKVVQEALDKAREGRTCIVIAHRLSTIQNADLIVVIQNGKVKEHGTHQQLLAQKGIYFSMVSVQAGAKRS

**Q.** For CN(C)C(=O)C(CCN1CCC(O)(c2ccc(Cl)cc2)CC1)(c1ccccc1)c1ccccc1.Cl [LOPERAMIDE HYDROCHLORIDE], which efflux ratio at 2 h, 1 µM is on record?
**A.** Its efflux ratio at 2 h, 1 µM is 9.
